SMILES strings stand for the structures. Where only a bound is given, the exact number is not on record here.

The test system of one assay is HCT116 MTAP-deleted cell lines. In words: Cell viability assay (CellTiter-Glo, 7 days), HCT116 MTAP-deleted. It is filed as cell-based. The following applies: Homo sapiens, HCT-116; cell viability assay, HCT116 MTAP-deleted; class symbols; read-out: CC50. Summed up:
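Read-out was CellTiter-Glo luminescence after a 7-day incubation (37 °C, 5% CO2) of HCT116 cells, MTAP-deleted or WT, on dose-response compound plates. CC50 values come from each line; where marked *, selectivity is overstated because poor solubility impaired the WT CC50 measurement.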
Regarding `COc1ccc2c(c1)CO[C@H]1CCCN(C(=O)c3cc4c(cc3F)nc(N)c3cncn34)[C@@H]21` (single isomer, unassigned) [Ff-390], the cytotoxic concentration (CC50) was under 100 nM.
Same read-out and setting: the result for `C[C@@H]1C[C@@H]2Cc3nc(C(F)(F)F)ccc3[C@@H]2N(C(=O)c2cc3c(cc2F)nc(N)c2cncn23)C1` (single isomer, unassigned) [Ff-393] reads under 100 nM; that for `Nc1nc2cc(F)c(C(=O)N3CCC[C@H]4Oc5cc(OC(F)(F)F)ccc5[C@H]43)cc2n2cncc12` (single isomer, unassigned) [Ff-394], 100 to 1000 nM; that for `Nc1nc2cc(F)c(C(=O)N3CCC[C@@H]4Oc5cc(OC(F)(F)F)ccc5[C@@H]43)cc2n2cncc12` (single isomer, unassigned) [Ff-395], under 100 nM.
On the same count and under the same terms, the result for `Nc1nc2cc(F)c(C(=O)N3CCC[C@@H]4Oc5cc(OC(F)(F)F)c(F)cc5[C@@H]43)cc2n2cncc12` (single isomer, unassigned) [Ff-396] reads under 100 nM; that for `Nc1nc2cc(F)c(C(=O)N3CCC[C@H]4Oc5cc(OC(F)(F)F)c(F)cc5[C@H]43)cc2n2cncc12` (single isomer, unassigned) [Ff-397], 100 to 1000 nM; that for `CN(C(=O)c1cc2c(cc1F)nc(N)c1cncn12)[C@@H]1CCc2cc(C(F)(F)F)ccc21` (single isomer, unassigned) [Ff-398], under 100 nM.
On the same count and under the same terms, the result for `Cc1ncn2c1c(N)nc1ccc(C(=O)N3CCC[C@@H]4Oc5cc(OC(F)(F)F)ccc5[C@@H]43)cc12` (single isomer, unassigned) [Ff-400] reads under 100 nM.
In the case of `Cc1ncc2c(N)nc3cnc(C(=O)N4C[C@@H](C)O[C@@H]5Cc6cc(Cl)ccc6[C@@H]54)cc3n12` (single isomer, unassigned) [Ff-463], the cytotoxic concentration (CC50) lay within 100 to 1000 nM.
Still for that read-out and setting: the result for `Cc1ncc2c(N)nc3cnc(C(=O)N4C[C@H](C)O[C@@H]5Cc6cc(Cl)ccc6[C@@H]54)cc3n12` (single isomer, unassigned) [Ff-464] reads 100 to 1000 nM; that for `Nc1nc2cc(F)c(C(=O)N3CCO[C@@H]4Cc5cc(F)ccc5[C@@H]43)cc2n2cncc12` (single isomer, unassigned) [Ff-467], under 100 nM; that for `C[C@@H]1OC[C@H](N(C)C(=O)c2ccc3nc(N)c4cncn4c3c2)c2ccc(C(F)(F)F)cc21` (single isomer, unassigned) [Ff-470], under 100 nM.
Regarding `C[C@H]1OC[C@@H](N(C)C(=O)c2ccc3nc(N)c4cncn4c3c2)c2ccc(C(F)(F)F)cc21` (single isomer, unassigned) [Ff-471], the CC50 is under 100 nM.
Still for that read-out and setting: the result for `CN(C(=O)c1cc2c(cc1F)nc(N)c1cncn12)[C@@H]1COc2cc([C@@H]3C[C@H]3C#N)ccc21` (single isomer, unassigned) [Ff-480] reads under 100 nM; that for `CN(C(=O)c1cc2c(cc1F)nc(N)c1cncn12)[C@@H]1COc2cc([C@H]3C[C@@H]3C#N)ccc21` (single isomer, unassigned) [Ff-481], under 100 nM.
Same read-out and setting: the result for `C[C@@H]1CC[C@@H]2Oc3cc(OC(F)(F)F)ccc3[C@@H]2N1C(=O)c1cc2c(cc1F)nc(N)c1cncn12` (single isomer, unassigned) [Ff-491] reads under 100 nM.
As for `CN(C(=O)c1cc2c(cc1F)nc(N)c1cnc(Br)n12)[C@@H]1COc2cc(C(F)(F)F)ccc21` (single isomer, unassigned) [Ff-493], the CC50 was 100 to 1000 nM.
On the same count and under the same terms, the result for `CN(C(=O)c1cc2c(cc1F)nc(N)c1c(Br)ncn12)[C@@H]1COc2cc(C(F)(F)F)ccc21` (single isomer, unassigned) [Ff-494] reads 100 to 1000 nM; that for `Nc1nc2cc(F)c(C(=O)N3CCC[C@@H]4Oc5cc(C(F)(F)F)ccc5[C@@H]43)cc2n2c(Br)ncc12` (single isomer, unassigned) [Ff-495], 100 to 1000 nM; that for `C[C@H]1CN(C(=O)c2cc3c(cc2F)nc(N)c2cnc(Br)n23)[C@H]2c3ccc(C(F)(F)F)cc3C[C@H]2O1` (single isomer, unassigned) [Ff-496], 100 to 1000 nM.
On the same count and under the same terms, the result for `CN(C(=O)c1cc2c(cc1F)nc(N)c1cncn12)[C@@H]1COc2cc([C@@H]3C[C@H]3C(F)F)ccc21` (single isomer, unassigned) [Ff-504] reads under 100 nM; that for `CN(C(=O)c1cc2c(cc1F)nc(N)c1cncn12)[C@@H]1COc2cc([C@H]3C[C@@H]3C(F)F)ccc21` (single isomer, unassigned) [Ff-505], under 100 nM; that for `Nc1nc2cc(F)c(C(=O)N3CCOC[C@@H]3c3ccc(C(F)(F)F)cn3)cc2n2cncc12` (single isomer, unassigned) [Ff-547], under 100 nM.
For `Nc1nc2cc(F)c(C(=O)N3CCOC[C@@H]3c3ccc(OC(F)(F)F)cc3)cc2n2cncc12` (single isomer, unassigned) [Ff-555], the CC50 was under 100 nM.
With `Nc1nc2cc(F)c(C(=O)N3CCOC[C@H]3c3ccc(OC(F)(F)F)cc3)cc2n2cncc12` (single isomer, unassigned) [Ff-556], the CC50 lay in the range of 100 to 1000 nM.
Same read-out and setting: the result for `CN(C(=O)c1cc2c(cc1F)nc(N)c1cncn12)[C@@H]1COc2cc(OC(F)(F)F)ccc21` (single isomer, unassigned) [Ff-557] reads under 100 nM; that for `CN(C(=O)c1cc2c(cc1F)nc(N)c1cncn12)[C@H]1COc2cc(OC(F)(F)F)ccc21` (single isomer, unassigned) [Ff-558], 100 to 1000 nM.
Same read-out and setting: the result for `CN(C(=O)c1cc2c(cc1F)nc(N)c1cncn12)[C@@H]1COc2cc(OC(F)F)ccc21` (single isomer, unassigned) [Ff-559] reads under 100 nM; that for `CN(C(=O)c1cc2c(cc1F)nc(N)c1cncn12)[C@@H]1COc2cc(Cl)c(F)cc21` (single isomer, unassigned) [Ff-597], under 100 nM.
Same read-out and setting: the result for `CN(C(=O)c1cc2c(cc1F)nc(N)c1cncn12)[C@@H]1COc2cc(C(F)(F)F)cc(F)c21` (single isomer, unassigned) [Ff-601] reads under 100 nM.
For the compound `CN(C(=O)c1cc2c(cc1F)nc(N)c1cncn12)[C@@H]1COc2cc(Cl)c(Cl)cc21` (single isomer, unassigned) [Ff-605], the CC50 is under 100 nM.
On the same count and under the same terms, the result for `CN(C(=O)c1cc2c(cc1F)nc(N)c1cncn12)[C@@H]1COc2c1ccc(Cl)c2Cl` (single isomer, unassigned) [Ff-606] reads 100 to 1000 nM; that for `Cc1ncn2c1c(N)nc1cnc(C(=O)N3[C@H](C)CC[C@@H]4Oc5cc(C(F)(F)F)ccc5[C@@H]43)cc12` (single isomer, unassigned) [Ff-611], under 100 nM.
`Cc1ncn2c1c(N)nc1cnc(C(=O)N3[C@@H]4c5ccc(C(F)(F)F)cc5O[C@@H]4CC[C@@H]3C)cc12` (single isomer, unassigned) [Ff-612]: the CC50 is 100 to 1000 nM.
Same read-out and setting: the result for `C[C@H]1CN(C(=O)c2cc3c(cc2F)nc(N)c2cncn23)[C@H]2Cc3ccccc3[C@H]2O1` (single isomer, unassigned) [Ff-623] reads 100 to 1000 nM; that for `C[C@@H]1CN(C(=O)c2ccc3nc(N)c4cncn4c3c2)[C@H]2c3cc(F)c(OC(F)(F)F)cc3C[C@H]2O1` (single isomer, unassigned) [Ff-628], under 100 nM.

The assay is the same for the next values; noted with them: Homo sapiens, HCT-116; cell viability, HCT116 MTAP-deleted; class symbols; read-out: CC50.
As for `C[C@@H]1CN(C(=O)c2cc3c(cc2F)nc(N)c2cncn23)[C@H]2c3ccc(OC(F)(F)F)c(F)c3C[C@H]2O1` (single isomer, unassigned) [Ff-191], the half-maximal cytotoxic concentration (CC50) was under 100 nM.
Still for that read-out and setting: the result for `C[C@H]1CN(C(=O)c2cc3c(cc2F)nc(N)c2cncn23)[C@H]2c3ccc(OC(F)(F)F)c(F)c3C[C@H]2O1` (single isomer, unassigned) [Ff-192] reads under 100 nM.
In the case of `C[C@@H]1CN(C(=O)c2cc3c(cn2)nc(N)c2cncn23)[C@H]2c3ccc(OC(F)(F)F)c(F)c3C[C@H]2O1` (single isomer, unassigned) [Ff-193], the CC50 lay in the range of 100 to 1000 nM.
With `C[C@H]1CN(C(=O)c2cc3c(cn2)nc(N)c2cncn23)[C@H]2c3ccc(OC(F)(F)F)c(F)c3C[C@H]2O1` (single isomer, unassigned) [Ff-194], the cytotoxic concentration (CC50) was in the range of 100 to 1000 nM.
On the same count and under the same terms, the result for `C[C@@H]1CN(C(=O)c2cc3c(cn2)nc(N)c2cncn23)[C@H]2c3cc(F)c(OC(F)(F)F)cc3C[C@H]2O1` (single isomer, unassigned) [Ff-195] reads under 100 nM.
The same measure, in the same setting: the result for `C[C@H]1CN(C(=O)c2cc3c(cn2)nc(N)c2cncn23)[C@H]2c3cc(F)c(OC(F)(F)F)cc3C[C@H]2O1` (single isomer, unassigned) [Ff-196] reads under 100 nM.
For `C[C@H]1CN(C(=O)c2cc3c(cc2F)nc(N)c2cncn23)[C@H]2c3cc(F)c(OC(F)(F)F)cc3C[C@H]2O1` (single isomer, unassigned) [Ff-198], the cytotoxic concentration (CC50) is under 100 nM.
Same read-out and setting: the result for `Nc1nc2cc(F)c(C(=O)N3CC(F)(F)CC[C@@H]3c3ccc(C(F)(F)F)cn3)cc2n2cncc12` (single isomer, unassigned) [Ff-242] reads under 100 nM.
Same read-out and setting: the result for `Nc1nc2cc(F)c(C(=O)N3CC(F)(F)CC[C@H]3c3ccc(C(F)(F)F)cn3)cc2n2cncc12` (single isomer, unassigned) [Ff-243] reads 100 to 1000 nM.
On the same count and under the same terms, the result for `Nc1nc2cc(F)c(C(=O)N3C[C@H](F)CC[C@@H]3c3ccc(C(F)(F)F)cn3)cc2n2cncc12` (single isomer, unassigned) [Ff-244] reads under 100 nM.
On to `Nc1nc2cc(F)c(C(=O)N3C[C@H](F)CC[C@H]3c3ccc(C(F)(F)F)cn3)cc2n2cncc12` (single isomer, unassigned) [Ff-245], for which the 50% cytotoxic concentration (CC50) fell in the range of 100 to 1000 nM.
Still for that read-out and setting: the result for `C[C@@H]1CN(C(=O)c2cc3c(cc2F)nc(N)c2cncn23)[C@H]2c3cc(F)c(C(F)(F)F)cc3C[C@H]2O1` (single isomer, unassigned) [Ff-328] reads under 100 nM.
Still for that read-out and setting: the result for `C[C@H]1CN(C(=O)c2cc3c(cc2F)nc(N)c2cncn23)[C@H]2c3cc(F)c(C(F)(F)F)cc3C[C@H]2O1` (single isomer, unassigned) [Ff-329] reads under 100 nM.

Broadly, the CC50 is the concentration that lowers cell viability or growth by half.

The values above are taken from patent US12448388B2, “PRMT5 inhibitors and uses thereof” (Gilead Sciences, Inc., priority 2023, dated 2025).
